{"source": "patent US10098898B1", "about": "“Release stable mesalamine dosage forms” (Handa Pharmaceuticals, LLC, priority 2017, dated 2018)", "origin": "cited, not measured here", "settings": "1% aqueous solution"}
{"smiles": "O=P([O-])([O-])O.[Na+].[Na+]", "note": "[disodium hydrogen phosphate]", "values": [{"measurement": "pH", "value": "about 9.1"}]}
